Tested on: rat aorta smooth muscle cells (mainly M2, lesser M3)
Assay: IPX level in primary culture of rat aorta smooth muscle cells
Assay type: cell-based
Conditions: in words
Description: Effects of compounds 6A and 7A on both cAMP and IPX levels were also measured in primary cultures of rat aorta smooth muscle cells that express mainly M2 and to a lesser extent M3 receptors (FIG. 6). […] Receptor expression levels are far lower in tested native tissues than in transfected cell lines and vary among tissues, being highest in the striatum and lowest in the submaxillary gland. Relative expression levels of G-proteins are also known to vary among tissues and cell lines. Thus, it is great to see that the pharmacological profile of the new compounds is conserved despite these variations.
Cell culture and membrane preparation: Chinese hamster ovary (CHO) cells stably transfected with the genes of individual human variants of muscarinic receptors were purchased from Missouri S&T cDNA Resource Center (Rolla, Mo., USA). Fresh primary cell culture of smooth muscle cells (SMC) from rat aorta prepared as previously described was kindly provided by Dr. Lucie Bačáková. […]
Measurements of the production of cAMP and inositol phosphates: Levels of second messengers cAMP and inositol phosphates were determined in radiochemical chromatography assays as described previously. […] Samples were applied to alumina columns (1.5 g of alumina per column), washed with 2 ml ammonium acetate (pH=7.0) and eluted from columns with 4 ml ammonium acetate and measured by liquid scintillation spectrometry. […]

Structure (SMILES): C[N+](C)(C)CCOC(N)=O [carbachol, reference compound]
- IPX level: increase in IPX level
